One series relates to Ebola. The settings on record: mouse, in vivo; cited from earlier work.
The subject of series [1] is ZIKV PLCal_ZV. The series is classed as cell-based.
The test system of another series is Vero E6 cells. The settings on record: African green monkey.
The subject of series [2] is ZIKV nonstructural protein 1 (NS1). The series is classed as cell-based.
A further series can be described thus: in vivo. The settings on record: male, C57BL/6, mouse.
The conditions of series [3]: human.
Series [4] relates to ZIKV PLCal_ZV. As to the kind of experiment: microbe, parasite or virus in culture. The series is classed as cell-based. Particulars: Zika virus, Vero.
For series [5] the following is noted: in vivo.
In another series the test system is ZIKV PRVABC59 isolate. The settings on record: mouse, in vivo.

What is called cell viability is the share of living cells, or the viability signal relative to a control. The NOAEL is the highest tested level that showed no adverse finding. By EC50 is commonly meant the concentration giving half of the maximal effect. What is called EC90 is the point of the concentration-response curve where the effect stands at 90%.

Each structure is given as a SMILES string.

As for `CCC(CC)COC(=O)[C@H](C)N[P@](=O)(OC[C@H]1O[C@@](C#N)(c2ccc3c(N)ncnn23)[C@H](O)[C@@H]1O)Oc1ccccc1` [GS-5734], the protection in mice in the series with Ebola is recorded as 100%.
`O=c1c(O[C@@H]2O[C@H](CO)[C@@H](O)[C@H](O)[C@H]2O)c(-c2ccc(O)c(O)c2)oc2cc(O)cc(O)c12` [Q3G, Quercetin-3-β-O-D-glucoside]: the “concentration at which complete inhibition of cytopathic effects (CPE) was observed” value in the series with ZIKV PLCal_ZV [1] is 6.9 µM. This compound also came in with a cell viability with Vero E6 cells of 100%. The “concentrations with statistically significant reductions in NS1” value in [2] is at least 0.6 µM. The compound also came in with a no-observed-adverse-effect level (NOAEL) in the series “in vivo” of 100 mg/kg. In series [3], the “calculated maximum recommended starting dose (MRSD)” value is 0.813 mg/kg and the “daily dose to start clinical trials” value is 56.91 mg. The EC50 in the series on ZIKV PLCal_ZV [4] (read-out: EC50 against ZIKV PLCal_ZV) was in the range of 1200 to 1300 nM. Moreover, the concentration for an effect of 90% (EC90) with ZIKV PLCal_ZV [4] (read-out: EC90 against ZIKV PLCal_ZV) is about 1500 nM. Also, the “time within which all mice died” value in series [5] (male, C57BL/6, mouse, ip, 400 mg/kg) was at most 2 days. In series [5] (mouse), the “survival and signs of toxicity” value is “without signs of toxicity”. Besides, in [5] (mouse, ip, 200 mg/kg), the deaths entry is reported as “One mouse” and the “weight loss of the surviving mice” value was about 15%. The compound further registered an average weight loss in the series on ZIKV PRVABC59 isolate of about 20%. Further, the “animals surviving the infection” value in the series on ZIKV PRVABC59 isolate (ip, 50 mg/kg) came out at 50%.
Consider `NC(=O)c1nc(F)c[nH]c1=O` [T-705], for which, in the series with Ebola, the “protection in IFNAR-/- mice” value is given as 100%.
In the case of `CCN(CC)CCOc1ccc(C(=C(Cl)c2ccccc2)c2ccccc2)cc1` [clomiphene], the protection of mice in the series with Ebola is given as 90%.
As for `CN(C)CCOc1ccc(/C(=C(/CCCl)c2ccccc2)c2ccccc2)cc1` [toremifene], in the series with Ebola, the protection of mice is reported as 50%.

Source of the values: patent publication US10987371B2 (priority 2017, dated 2021).
